Source: patent US11415579B2, “Assay for measuring a rate of reaction between a target and a ligand candidate” (Imperial College Innovations Ltd., priority 2016, dated 2022)

Legend:
[1] = molecular target: T1, Cdk2(S276C) (C177A) (Homo sapiens, UniProt P24941, C177A/S276C); assay: Kinetic thiol consumption assay with Cdk2 mutant S276C; assay type: binding; design: key to Rate enhancement, Cdk2 S276C: rate constant with Cdk2 ÷ rate constant with model thiol (fold); conditions: additional mutation C177A; for Rate constant with Cdk2 S276C: Protein: Cdk2, cysteine position S276C, in h^-1
T1 construct: poly-histidine; made in house; host or cells: E. coli
Method in brief: (§1)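 Read-out is fluorescence at 380/470 nm, taken after 1 h at room temperature and normalized to a DMSO/thiol-only control over time. Thiol (5 μM Cdk2 mutant or model thiol) was in degassed pH 8 phosphate buffer with 2% v/v TCEP beads. Acrylamide rate constants for Cdk2 were divided by those with model thiol.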

[2] = molecular target: T2, human cyclin-dependent kinase 2 (Cdk2) (Homo sapiens, UniProt P24941); assay: Kinetic thiol consumption assay with wild type Cdk2 (C177); assay type: binding; design: key to Rate enhancement, Cdk2 WT: k(Cdk2) divided by k(model thiol); Rate constant with Cdk2 (k(Cdk2)): unit not given here; conditions: for Rate constant with Cdk2 (k(Cdk2)): 500 μM ligand, 5 μM thiol, phosphate buffer pH 8; for Rate enhancement, Cdk2 WT: no additional mutations; for Rate constant with Cdk2 WT: Protein: Cdk2, cysteine position WT, in h^-1; for k(Cdk2)/k(Cdk2_mut) rate enhancement: model thiol Cdk2[C177A, F80C, K278C]; for k(Cdk2)/k(GSH) rate enhancement: model thiol glutathione
T2 construct: poly-histidine; made in house; host or cells: E. coli
Method in brief: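 Rate constants came from first-order exponential decay fits of normalized fluorescence against time, with thiol (5 μM) in degassed pH 8 phosphate buffer containing 2% v/v TCEP beads and reads after 1 h at room temperature.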

[3] = molecular target: T3, Cdk2[C177A, F80C, K278C] (Homo sapiens, UniProt P24941, C177A/F80C/K278C); assay: Kinetic thiol consumption assay with mutant Cdk2 as model thiol; assay type: binding; design: unit not given here; conditions: 500 μM ligand, 5 μM thiol, phosphate buffer pH 8
T3 construct: poly-histidine; made in house; host or cells: E. coli
Procedure: A library of 120 acrylamides was screened against a) human cyclin-dependent kinase 2 (Cdk2, which contains one surface exposed cysteine residue—C177), prepared by cloning cDNA into the pRSETA bacterial expression vector to generate a poly-histidine tagged Cdk2 fusion that was purified from E. coli using standard techniques, and b) a model thiol (specific details are given below). The structures of these 120 acrylamides are set out in Table 1, above.
To wells containing 150 μL thiol (Cdk2 or model thiol) (5 μM) in degassed phosphate buffer (pH 8) was added immobilized TCEP beads (2% v/v).
After incubation of the fluorescence plates for 1 hour at room temperature, fluorescence measurements (excitation/emission of 380/470 nm) were taken on a PerkinElmer EnVision multilabel plate reader and processed with EnVision Workstation version 1.12.
Fluorescence measurements were normalized against a DMSO/thiol only control and plotted against time.
Rate constants were calculated using GraphPad software Prism version 6 by fitting a first order exponential decay to the data. The rate constant for each acrylamide with Cdk2 was divided by the rate constant for that fragment with the model thiol to provide the rate enhancement for each ligand candidate.
The model thiol used in Example 2 is a mutant form of human Cdk2 (C177A, F80C, K278C) which contains two engineered surface exposed cysteine residues. Mutations were introduced by site-directed mutagenesis and the resulting cDNA was cloned into the pRSETA bacterial expression vector to generate a poly-histidine tagged Cdk2 fusion that was purified from E. coli using standard techniques.

[4] = molecular target: T4, Cdk2(S181C) (C177A) (Homo sapiens, UniProt P24941, C177A/S181C); assay: Kinetic thiol consumption assay with Cdk2 mutant S181C; assay type: binding; design: key to Rate enhancement, Cdk2 S181C: rate constant with Cdk2 ÷ rate constant with model thiol (fold); conditions: additional mutation C177A; for Rate constant with Cdk2 S181C: Protein: Cdk2, cysteine position S181C, in h^-1
T4 construct: poly-histidine; made in house; host or cells: E. coli
Method in brief: as §1

[5] = molecular target: T5, Cdk2(T182C) (C177A) (Homo sapiens, UniProt P24941, C177A/T182C); assay: Kinetic thiol consumption assay with Cdk2 mutant T182C; assay type: binding; design: key to Rate enhancement, Cdk2 T182C: rate constant with Cdk2 ÷ rate constant with model thiol (fold); conditions: additional mutation C177A; for Rate constant with Cdk2 T182C: Protein: Cdk2, cysteine position T182C, in h^-1
T5 construct: poly-histidine; made in house; host or cells: E. coli
Method in brief: as §1

[6] = molecular target: T6, Cdk2(R122C) (C177A) (Homo sapiens, UniProt P24941, C177A/R122C); assay: Kinetic thiol consumption assay with Cdk2 mutant R122C; assay type: binding; design: key to Rate enhancement, Cdk2 R122C: rate constant with Cdk2 ÷ rate constant with model thiol (fold); conditions: additional mutation C177A; for Rate constant with Cdk2 R122C: Protein: Cdk2, cysteine position R122C, in h-1
T6 construct: poly-histidine; made in house; host or cells: E. coli
Method in brief: as §1

[7] = molecular target: T7, Cdk2(H71C) (C177A) (Homo sapiens, UniProt P24941, C177A/H71C); assay: Kinetic thiol consumption assay with Cdk2 mutant H71C; assay type: binding; design: key to Rate enhancement, Cdk2 H71C: rate constant with Cdk2 ÷ rate constant with model thiol (fold); conditions: additional mutation C177A; for Rate constant with Cdk2 H71C: Protein: Cdk2, cysteine position H71C, in h^-1
T7 construct: poly-histidine; made in house; host or cells: E. coli
Method in brief: as §1

[8] = molecular target: T8, Cdk2(C177A, F80C) (Homo sapiens, UniProt P24941, C177A/F80C); assay: Kinetic thiol consumption assay with Cdk2 mutant F80C, incl. kobs versus concentration (Kd, k2); assay type: binding; design: key to Rate enhancement, Cdk2 F80C: Cdk2 rate constant divided by model-thiol rate constant; conditions: additional mutation C177A; for Rate constant with Cdk2 F80C: Protein: Cdk2, cysteine position F80C, in h^-1
T8 construct: poly-histidine; made in house; host or cells: E. coli
Method in brief: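 His-tagged Cdk2(C177A/F80C) from E. coli or model thiol, 5 μM in degassed phosphate buffer pH 8 with TCEP beads, reacted with acrylamide ligands; fluorescence (ex/em 380/470 nm) normalized to DMSO control and fitted to first-order decay for kobs. Kd and k2 obtained from hyperbolic fit of kobs versus ligand concentration.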

[9] = molecular target: T9, Cdk2(N272C) (C177A) (Homo sapiens, UniProt P24941, C177A/N272C); assay: Kinetic thiol consumption assay with Cdk2 mutant N272C; assay type: binding; design: key to Rate enhancement, Cdk2 N272: rate constant with Cdk2 ÷ rate constant with model thiol (fold); conditions: for Rate enhancement, Cdk2 N272: Cdk2 N272, additional mutation C177A; for Rate constant with Cdk2 N272C: Protein: Cdk2, cysteine position N272C, additional mutation C177A, in h^-1
T9 construct: poly-histidine; made in house; host or cells: E. coli
Method in brief: as §1

[10] = Kinetic thiol consumption assay with model thiol glutathione; assay type: physicochemical; design: Rate constant with glutathione (k(GSH)): unit not given here; conditions: for Rate constant with glutathione (k(GSH)): 500 μM ligand, 5 μM thiol, phosphate buffer pH 8; for Rate constant with Glutathione: Protein: Glutathione, cysteine position NA, in h-1
Method in brief: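 First, 5 μM glutathione in degassed phosphate buffer (pH 8) receives immobilized TCEP beads (2% v/v). Then acrylamide is added and plates incubate 1 h at room temperature. Finally, fluorescence (380/470 nm) is normalized and fitted to first-order decay for rate constants.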

Row | SMILES | Rate enhancement, Cdk2 S276C [1] | Rate constant with Cdk2 S276C [1] | Rate constant with Cdk2 (k(Cdk2)) [2] | Rate enhancement, Cdk2 WT [2] | Rate constant with Cdk2 WT [2] | k(Cdk2)/k(Cdk2_mut) rate enhancement [2] | k(Cdk2)/k(GSH) rate enhancement [2] | Rate constant with Cdk2[C177A, F80C, K278C] (k(Cdk2_mut)) [3] | Rate enhancement, Cdk2 S181C [4] | Rate constant with Cdk2 S181C [4] | Rate enhancement, Cdk2 T182C [5] | Rate constant with Cdk2 T182C [5] | Rate enhancement, Cdk2 R122C [6] | Rate constant with Cdk2 R122C [6] | Rate enhancement, Cdk2 H71C [7] | Rate enhancement, Cdk2 F80C [8] | Rate constant with Cdk2 F80C [8] | Rate enhancement, Cdk2 N272 [9] | Rate constant with glutathione (k(GSH)) [10] | Rate constant with Glutathione [10] | also measured
1 | C=CC(=O)N1CCC(c2nc3ccccc3[nH]2)CC1 [EL-1152] | 2.027 | 0.01203 | 0.00612 | 1.186 | 0.007039 | 1.055 | 1.009 | 0.0058 | 0.9565 | 0.005678 | 3.834 | 0.02276 | 0.7476 | 0.004438 | 0.6643 | 0.816 | 0.004844 | 0.326 | 0.00606 | 0.005936 | Rate constant with Cdk2 H71C [7]: 0.003943; Rate constant with Cdk2 N272C [9]: 0.001935
2 | C=CC(=O)N1CC2CN(Cc3ccccc3)CC2C1 (stereo not drawn) [CA-207] | 0.1692 | 0.00287 | 0.00578 | 0.3633 | 0.006162 | 5.219 | 0.5947 | 0.00111 | 0.2075 | 0.003519 | 0.921 | 0.01562 | 0.3602 | 0.006109 | 0 | 0.1388 | 0.002354 | 0.3358 | 0.00972 | 0.01696 | Rate constant with Cdk2 N272C [9]: 0.005695
3 | C=CC(=O)NCCc1c(-c2ccccn2)[nH]c2ccc(F)cc12 [EL-1084] | 0.4117 | 0.001759 | 0.00314 | 1.173 | 0.005012 | 0.5247 | 1.101 | 0.00599 | 0.09078 | 0.0003879 | 1.828 | 0.007812 | 0.229 | 0.0009787 | 0 | 1.7587E−11 | 7.515E−14 | 0.608 | 0.00286 | 0.004273 | Rate constant with Cdk2 N272C [9]: 0.002598
4 | C=CC(=O)N1C(=O)CC(c2ccccc2)N(C(=O)C=C)c2ccccc21 (stereo not drawn) [CA-165-1] | 0 | – | 0.3945 | 1.092 | 5.676 | 0.3473 | 0.8877 | 1.136 | 0 | – | 0 | – | 0 | – | 0 | 0.661 | 3.436 | 0 | 0.4444 | 5.198 | –
5 | C=CC(=O)N1CC2CCCCCCC21 (stereo not drawn) [CA-098] | 3.196 | 0.08188 | 0.01499 | 0.9446 | 0.0242 | 2.745 | 0.9287 | 0.00546 | 0.8872 | 0.02273 | 4.766 | 0.1221 | 0.3481 | 0.008918 | 0.8002 | 0.5929 | 0.01519 | 6.698 | 0.01614 | 0.02562 | Rate constant with Cdk2 H71C [7]: 0.0205; Rate constant with Cdk2 N272C [9]: 0.1716
6 | C=CC(=O)NCC1CCCN1S(=O)(=O)c1ccc(C(=O)O)cc1 (stereo not drawn) [BN122] | 0.1643 | 0.0009842 | 0.00219 | 0.3657 | 0.002191 | 1.879 | 0.7753 | 0.00117 | 0.9743 | 0.005838 | 2.502 | 0.01499 | 0.4317 | 0.002587 | 0 | 0.3899 | 0.002336 | 0.7423 | 0.00283 | 0.005992 | Rate constant with Cdk2 N272C [9]: 0.004448
